According to patent US5244602A, “Photochromic naphthopyrans” (PPG Industries, Inc., priority 1990, dated 1993):

Key:
Format in all cases: physicochemical
[1] = Fade rate (T 1/2) of naphthopyran imbibed into polymerizate after UV activation; conditions: At Room Temperature; imbibed in poly[diethylene glycol bis(allyl carbonate)]; UV 365 nm lamp
Excerpt: (§1) The naphthopyran compounds of Examples 1-11 were imbibed into separate polymerizates of poly[diethylene glycol bis(allyl carbonate)]. On exposure to ultraviolet light from a 365 nm lamp, the imbibed polymer samples elicited a photochromic response which faded on removal of the UV light source.
^1. At Room Temperature

[2] = Absorption maximum of naphthopyran imbibed into polymerizate; conditions: imbibed in poly[diethylene glycol bis(allyl carbonate)]; UV 365 nm lamp
Excerpt: as §1

[3] = Coloring and bleaching behaviour; conditions: for bleaching: room temperature

| SMILES | Fade Rate T 1/2 [1] [min] | Absorption λ Max [2] [NM] | color change on exposure to near ultraviolet [3] | bleaching [3] |
| --- | --- | --- | --- | --- |
| O=C(Oc1cc2ccccc2c2c1OC(c1ccccc1)(c1ccccc1)C=C2)c1ccccc1 [Example 5, 5-benzoyloxy-3,3-diphenyl-3H-naphtho[2,1-b]pyran] | 2.3 | 447 |  |  |
| Cc1ccc(C2(c3ccc(C)cc3)C=Cc3c(c(OC(=O)CCl)cc4ccccc34)O2)cc1 [Example 11, 5-chloroacetoxy-3,3-p-methylphenyl-3H-naphtho[2,1-b]pyran] | 1.75 | 476 |  |  |
| CC(=O)Oc1cc2ccccc2c2c1OC(c1ccccc1)(c1ccccc1)C=C2 [Example 1, 5-acetoxy-3,3-diphenyl-3H-naphtho[2,1-b]pyran] | 1.35 | 455 |  |  |
| COc1ccc(C2(c3ccccc3)C=Cc3c(c(OC(=O)c4ccccc4)cc4ccccc34)O2)cc1 (stereo not drawn) [Example 4, 5-benzoyloxy-3-phenyl-3-p-methoxy phenyl-3H-naphtho[2,1-b]pyran] | 3.5 | 483 |  |  |
| CC(=O)COc1cc2ccccc2c2c1OC(c1ccccc1)(c1ccccc1)C=C2 [Example 8, 5-(2-acetonyloxy)-3,3-diphenyl-3H-naphtho[2,1-b]pyran] | 1.6 | 434 |  |  |
| COc1ccc(C2(c3ccccc3)C=Cc3c(c(OC(C)=O)cc4ccccc34)O2)cc1 (stereo not drawn) [Example 3, 5-acetoxy-3-phenyl-3-p-methoxy phenyl-3H-naphtho[2,1-b]pyran] | 1.05 | 483 |  |  |
| CC(=O)Oc1cc2ccccc2c2c1OC(c1ccc(C)cc1)(c1ccc(C)cc1)C=C2 [Example 9, 5-acetoxy-3,3-di(p-methylphenyl)-3H-naphtho[2,1-b]pyran] | 2.23 | 470 |  |  |
| C1=CC(c2ccccc2)(c2ccccc2)Oc2c(Oc3ccccn3)cc3ccccc3c21 [Example 2, 5(2-pyridyloxy)-3,3-diphenyl-3H naphtho[2,1-b]pyran] | 1.57 | 440 |  |  |
| C1=CC(c2ccccc2)(c2ccccc2)Oc2c1ccc1ccccc21 [2,2-diphenyl-2H-naphtho[1,2-b] pyrin] |  |  | colors on exposure to near ultraviolet light at room temperature | does not bleach in a reasonable period of time |
| O=C(CCl)Oc1cc2ccccc2c2c1OC(c1ccccc1)(c1ccccc1)C=C2 [Example 10, 5-chloroacetoxy-3,3-diphenyl-3H-naphtho[2,1-b]pyran] | 1.6 | 458 |  |  |
| C1=CC(c2ccccc2)(c2ccccc2)Oc2ccc3ccccc3c21 [3,3-diphenyl-3H-naphtho[2,1-b]pyran] |  |  | change color on exposure to the near ultraviolet | bleaches too rapidly for use in an ophthalmic lens |
| CNC(=O)Oc1cc2ccccc2c2c1OC(c1ccccc1)(c1ccccc1)C=C2 [Example 6, 5-methylcarbamyloxy-3,3-diphenyl-3H-naphtho[2,1-b]pyran] | 1.67 | 446 |  |  |
